In ChEMBL document CHEMBL1201862, “PubChem BioAssay data set” (2004):
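Where inhibition never reached the appropriate level, the endpoint shown equals the highest concentration tested. Otherwise, values were interpolated linearly from a five-concentration, 48-hour dose response in 96-well plates. GI50: concentration for 50% inhibition of growth.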 Activity calls are given as the source filed them. Cut-off read from the data, not from the text of the source: active = GI50 up to about 1.1 µM and inactive = higher.

Columns and labels:
Assay in all cases: NCI tumour cell line growth inhibition, 48 h
COLO 205 = test system: COLO 205
ACHN = test system: ACHN
OVCAR-5 = test system: OVCAR-5
K562 = test system: K562
UACC-62 = test system: UACC-62
HCC 2998 = test system: HCC 2998
OVCAR-3 = test system: OVCAR-3
DMS-273 = test system: DMS-273
DMS-114 = test system: DMS-114
SNB-78 = test system: SNB-78
SF-539 = test system: SF-539
KM12 = test system: KM12
SN12C = test system: SN12C
HOP-62 = test system: HOP-62
NCI-H522 = test system: NCI-H522
HOP-92 = test system: HOP-92
DLD-1 = test system: DLD-1
LOX IMVI = test system: LOX IMVI

Measured: GI50

CN(CCCN1C(=O)c2cccc3cc([N+](=O)[O-])cc(c23)C1=O)CCN(C)CCCN1C(=O)c2cccc3cc([N+](=O)[O-])cc(c23)C1=O
inactive: COLO 205 23.4 µM | ACHN 17.9 µM | OVCAR-5 > 39.3 µM | K562 4.94 µM | UACC-62 17 µM | HCC 2998 21.2 µM | OVCAR-3 > 39.3 µM | DMS-273 11.4 µM | DMS-114 33.6 µM | SNB-78 > 39.3 µM | SF-539 29.7 µM | KM12 24.7 µM | SN12C > 39.3 µM | HOP-62 31.8 µM | NCI-H522 > 39.3 µM

COC(=O)C1C(C(=O)OC)C2(OC)c3ccccc3-c3ccccc3C12 (configuration not stated)
inactive: COLO 205 16.1 µM | ACHN 37.9 µM | OVCAR-5 > 100 µM | HOP-92 35 µM | K562 19.8 µM | UACC-62 26.1 µM | HCC 2998 64.3 µM | OVCAR-3 31 µM | DLD-1 33.3 µM | DMS-273 16.7 µM | DMS-114 20.6 µM | SF-539 66.5 µM | KM12 35.6 µM | SN12C 32 µM | HOP-62 71.6 µM | NCI-H522 20.3 µM | LOX IMVI 25.6 µM

COc1cc(-c2n[nH]cc2CCCC(=O)Nc2ccccc2[N+](=O)[O-])ccc1O
inactive: COLO 205 > 100 µM | ACHN > 100 µM | OVCAR-5 > 100 µM | HOP-92 91.8 µM | K562 29.6 µM | UACC-62 67.9 µM | HCC 2998 > 100 µM | DLD-1 > 100 µM | DMS-273 66.7 µM | DMS-114 25.4 µM | SF-539 74.5 µM | SN12C > 100 µM | HOP-62 > 100 µM | NCI-H522 94 µM | LOX IMVI > 100 µM

CCCc1n[nH]c(CCC(=O)N(Cc2ccccc2)Cc2ccccc2)c1CC
inactive: COLO 205 > 100 µM | ACHN > 100 µM | OVCAR-5 > 100 µM | K562 > 100 µM | UACC-62 > 100 µM | HCC 2998 > 100 µM | OVCAR-3 > 100 µM | DLD-1 > 100 µM | DMS-273 > 100 µM | DMS-114 > 100 µM | SF-539 > 100 µM | KM12 > 100 µM | SN12C > 100 µM | HOP-62 > 100 µM | NCI-H522 > 100 µM | LOX IMVI > 100 µM

CCc1cccc(C)c1NC(=O)CCc1n[nH]c(=S)o1
inactive: COLO 205 44.6 µM | ACHN > 100 µM | OVCAR-5 > 100 µM | HOP-92 > 100 µM | K562 66.8 µM | UACC-62 > 100 µM | HCC 2998 > 100 µM | OVCAR-3 > 100 µM | DLD-1 44.4 µM | DMS-273 37.8 µM | SNB-78 > 100 µM | SF-539 > 100 µM | KM12 > 100 µM | SN12C > 100 µM | HOP-62 > 100 µM | NCI-H522 > 100 µM

COc1ccc(NC(=O)CC2S/C(=N\c3ccccc3C)NC2=O)c([N+](=O)[O-])c1 (configuration not stated)
inactive: COLO 205 > 100 µM | ACHN > 100 µM | OVCAR-5 > 100 µM | HOP-92 > 100 µM | K562 > 100 µM | UACC-62 > 100 µM | HCC 2998 > 100 µM | OVCAR-3 > 100 µM | DLD-1 > 100 µM | DMS-273 > 100 µM | SNB-78 > 100 µM | SF-539 > 100 µM | KM12 > 100 µM | SN12C > 100 µM | HOP-62 > 100 µM | NCI-H522 25.4 µM | LOX IMVI > 100 µM

CCC1C(C(=O)Nc2ccccc2C)=C(C)NC(C)=C1c1ccccc1C (configuration not stated)
inactive: COLO 205 > 77.1 µM | ACHN > 100 µM | OVCAR-5 > 100 µM | HOP-92 > 100 µM | K562 80 µM | UACC-62 > 100 µM | HCC 2998 > 100 µM | OVCAR-3 > 100 µM | DLD-1 > 39.7 µM | DMS-273 > 49 µM | SNB-78 > 100 µM | SF-539 > 100 µM | KM12 > 100 µM | SN12C > 100 µM | HOP-62 > 100 µM | NCI-H522 > 100 µM | LOX IMVI > 57.8 µM

O=c1c2ccccc2[nH]c(=S)n1-c1ccc(Br)cc1
inactive: COLO 205 > 100 µM | ACHN 42.5 µM | HOP-92 18.8 µM | K562 43 µM | HCC 2998 > 100 µM | OVCAR-3 45.1 µM | DLD-1 49.7 µM | DMS-114 46.7 µM | SNB-78 > 100 µM | SF-539 > 100 µM | KM12 > 100 µM | SN12C > 100 µM | HOP-62 > 100 µM | NCI-H522 43.1 µM | LOX IMVI 48.5 µM

O=[N+]([O-])C(=C1c2ccccc2-c2ccccc21)[N+](=O)[O-]
inactive: COLO 205 > 100 µM | ACHN 62.8 µM | OVCAR-5 91.2 µM | K562 43.8 µM | UACC-62 49.3 µM | HCC 2998 70.5 µM | OVCAR-3 > 100 µM | DMS-273 > 10 µM | SNB-78 > 100 µM | SF-539 > 100 µM | KM12 57.5 µM | SN12C > 100 µM | HOP-62 > 100 µM | NCI-H522 44.1 µM | LOX IMVI 83.4 µM

CCOC(=O)Cc1csc(Nc2ccccc2[N+](=O)[O-])n1
inactive: COLO 205 > 100 µM | ACHN > 100 µM | OVCAR-5 > 100 µM | HOP-92 > 100 µM | K562 > 100 µM | UACC-62 > 100 µM | HCC 2998 > 100 µM | OVCAR-3 > 100 µM | DMS-273 99.1 µM | DMS-114 > 100 µM | SNB-78 > 100 µM | SF-539 > 100 µM | KM12 > 100 µM | SN12C > 100 µM | HOP-62 > 100 µM | NCI-H522 > 100 µM | LOX IMVI > 46.7 µM

N#CCCN(c1ccc(/C=C2\N=C(c3ccc(Cl)cc3)OC2=O)cc1)S(=O)(=O)c1ccccc1
inactive: COLO 205 > 100 µM | ACHN > 100 µM | OVCAR-5 > 100 µM | K562 > 100 µM | UACC-62 > 100 µM | HCC 2998 > 100 µM | OVCAR-3 > 100 µM | DLD-1 > 100 µM | DMS-273 > 100 µM | DMS-114 > 100 µM | SF-539 > 100 µM | KM12 > 100 µM | SN12C > 100 µM | HOP-62 > 100 µM | NCI-H522 > 100 µM | LOX IMVI > 100 µM

Cn1c(=O)oc2cc(C3CCC(=O)N3Cc3csc(-c4ccccc4)n3)ccc21 (configuration not stated)
inactive: COLO 205 77.3 µM | ACHN > 100 µM | OVCAR-5 > 100 µM | K562 64.6 µM | UACC-62 > 100 µM | HCC 2998 > 100 µM | DLD-1 86.9 µM | DMS-273 89.5 µM | DMS-114 > 100 µM | SNB-78 > 100 µM | SF-539 > 100 µM | KM12 76.2 µM | SN12C > 100 µM | HOP-62 > 100 µM | NCI-H522 > 100 µM | LOX IMVI > 100 µM
